Laboratory results as given in patent US10030020B2, “Spirocycle compounds and methods of making and using same” (Abide Therapeutics, Inc., priority 2016, dated 2018).

Assays:
Assay type in all cases: biochemical
MAGL = MAGL (Mus musculus (Mouse), UniProt O35678); test: In vitro competitive activity-based protein profiling (mouse brain membrane fraction or cell lysates), MAGL band; settings: mouse proteome; for inhibition at 1 µM: read-out: MAGL % Inh 1 μM (mouse); for IC50: competitive ABPP
Procedure: (§1) In Vitro Competitive Activity-Based Protein Profiling.
(§2) Proteomes (mouse brain membrane fraction or cell lysates) (50 μL, 1.0 mg/mL total protein concentration) were preincubated with varying concentrations of inhibitors at 37° C. After 30 min, FP—Rh (1.0 μL, 50 μM in DMSO) was added and the mixture was incubated for another 30 min at 37° C. Reactions were quenched with SDS loading buffer (50 μL-4×) and run on SDS-PAGE.

ABHD6 = ABHD6 (Mus musculus (Mouse), UniProt Q8R2Y0); test: In vitro competitive activity-based protein profiling (mouse brain membrane fraction or cell lysates), ABHD6 band; settings: mouse proteome; for inhibition at 1 µM: read-out: ABHD6 % Inh 1 μM (mouse); for IC50: competitive ABPP
Procedure: as §1
as §2, with “SDS-PAGE. Following gel imaging, serine hydrolase activity was determined by measuring fluorescent intensity of gel bands corresponding to MAGL, ABHD6 and FAAH using ImageJ 1.43u software.” for “SDS-PAGE.”

FAAH = FAAH (Mus musculus (Mouse), UniProt O08914); test: In vitro competitive activity-based protein profiling (mouse brain membrane fraction or cell lysates), FAAH band; settings: mouse proteome; for inhibition at 1 µM: read-out: FAAH % Inh 1 μM (mouse); for IC50: competitive ABPP
Procedure: as §1
as §2, with “SDS-PAGE. Following gel imaging, serine hydrolase activity was determined by measuring fluorescent intensity of gel bands corresponding to MAGL, ABHD6 and FAAH using ImageJ 1.43u software.” for “SDS-PAGE.”

Chain of MAGL (O35678 whole entry): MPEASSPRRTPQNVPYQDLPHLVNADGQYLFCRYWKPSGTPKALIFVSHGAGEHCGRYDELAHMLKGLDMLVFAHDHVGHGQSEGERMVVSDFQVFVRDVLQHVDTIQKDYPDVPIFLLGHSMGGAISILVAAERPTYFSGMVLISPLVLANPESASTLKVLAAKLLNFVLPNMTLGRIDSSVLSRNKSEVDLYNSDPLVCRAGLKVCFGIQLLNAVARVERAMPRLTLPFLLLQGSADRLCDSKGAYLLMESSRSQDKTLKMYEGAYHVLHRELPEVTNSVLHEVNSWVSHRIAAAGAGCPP
Chain of ABHD6 (Q8R2Y0 whole entry): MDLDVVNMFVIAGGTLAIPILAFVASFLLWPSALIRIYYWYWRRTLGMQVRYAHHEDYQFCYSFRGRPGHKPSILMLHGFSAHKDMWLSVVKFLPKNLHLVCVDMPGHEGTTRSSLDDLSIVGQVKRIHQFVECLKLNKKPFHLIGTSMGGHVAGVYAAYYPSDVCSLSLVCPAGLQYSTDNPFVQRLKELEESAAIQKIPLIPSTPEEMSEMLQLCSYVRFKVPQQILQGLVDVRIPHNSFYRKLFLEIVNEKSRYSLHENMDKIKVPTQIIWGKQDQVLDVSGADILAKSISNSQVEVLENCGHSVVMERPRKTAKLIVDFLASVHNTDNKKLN
Chain of FAAH (O08914 whole entry): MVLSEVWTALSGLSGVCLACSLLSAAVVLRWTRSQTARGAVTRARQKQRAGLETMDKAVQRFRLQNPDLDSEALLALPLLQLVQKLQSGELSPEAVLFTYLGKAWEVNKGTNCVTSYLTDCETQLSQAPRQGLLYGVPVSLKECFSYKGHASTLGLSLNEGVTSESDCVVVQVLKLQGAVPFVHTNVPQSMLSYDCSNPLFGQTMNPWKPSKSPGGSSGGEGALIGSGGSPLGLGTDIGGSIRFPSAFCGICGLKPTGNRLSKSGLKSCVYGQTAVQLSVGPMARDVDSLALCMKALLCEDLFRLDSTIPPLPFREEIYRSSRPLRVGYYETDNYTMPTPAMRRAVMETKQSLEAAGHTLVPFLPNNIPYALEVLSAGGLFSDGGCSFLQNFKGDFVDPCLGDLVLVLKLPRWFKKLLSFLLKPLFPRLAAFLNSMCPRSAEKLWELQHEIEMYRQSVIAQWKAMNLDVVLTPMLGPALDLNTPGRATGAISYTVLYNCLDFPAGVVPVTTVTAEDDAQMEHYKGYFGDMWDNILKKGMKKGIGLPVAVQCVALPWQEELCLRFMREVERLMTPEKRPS

Row | Structure (SMILES) | inhibition at 1 µM (MAGL) [%] | IC50 (MAGL) [nM] | inhibition at 1 µM (ABHD6) [%] | IC50 (ABHD6) [nM] | inhibition at 1 µM (FAAH) [%] | IC50 (FAAH) [nM]
1 | CS(=O)(=O)N1CCN(c2cc(Cl)cc(CN3CCCC34CCN(C(=O)OC(C(F)(F)F)C(F)(F)F)CC4)c2)CC1 [Example 40, 1,1,1,3,3,3-Hexafluoropropan-2-yl 1-(3-chloro-5-(4-(methylsulfonyl)piperazin-1-yl)benzyl)-1,8-diazaspiro[4.5]decane-8-carboxylate] | > 75 | < 100 | < 25 | > 1000 | < 25 | > 1000
2 | O=C(OC(C(F)(F)F)C(F)(F)F)N1CCC2(CCCN2Cc2cc(N3CCN(C4CC4)CC3)cc(C(F)(F)F)c2)CC1 [Example 41, 1,1,1,3,3,3-Hexafluoropropan-2-yl 1-(3-(4-cyclopropylpiperazin-1-yl)-5-(trifluoromethyl)benzyl)-1,8-diazaspiro[4.5]decane-8-carboxylate] | > 75 | < 100 | < 25 | > 1000 | < 25 | > 1000
3 | COc1cc(Cl)ccc1CN1CC2(CCN(C(=O)OC(C(F)(F)F)C(F)(F)F)CC2)CC1(C)C [Example 49, 1,1,1,3,3,3-Hexafluoropropan-2-yl 2-(4-chloro-2-methoxybenzyl)-3,3-dimethyl-2,8-diazaspiro[4.5]decane-8-carboxylate] | > 75 |  | < 25 | > 1000 | < 25 | > 1000
4 | CC1(C)CC2(CCN(C(=O)OC(C(F)(F)F)C(F)(F)F)CC2)CN1Cc1ccc(C(F)(F)F)cc1N1CC2COCC2C1 (centres unmarked) [Example 55, 1,1,1,3,3,3-Hexafluoropropan-2-yl 3,3-dimethyl-2-(2-(tetrahydro-1H-furo[3,4-c]pyrrol-5(3H)-yl)-4-(trifluoromethyl)benzyl)-2,8-diazaspiro[4.5]decane-8-carboxylate] | > 75 | < 100 | < 25 | > 1000 | < 25 | > 1000
5 | CC1(C)CC2(CCN(C(=O)OC(C(F)(F)F)C(F)(F)F)CC2)CN1Cc1c(N2CCC3(CCOCC3)C2)cccc1C(F)(F)F [Example 56, 1,1,1,3,3,3-Hexafluoropropan-2-yl 2-(2-(8-oxa-2-azaspiro[4.5]decan-2-yl)-6-(trifluoromethyl)benzyl)-3,3-dimethyl-2,8-diazaspiro[4.5]decane-8-carboxylate] | 25 to 75 | 100 to 1000 | < 25 | > 1000 | < 25 | > 1000
6 | CC1(C)CC2(CCN(C(=O)OC(C(F)(F)F)C(F)(F)F)CC2)CN1Cc1c(N2CC3COCC3C2)cccc1C(F)(F)F (centres unmarked) [Example 57, 1,1,1,3,3,3-Hexafluoropropan-2-yl 3,3-dimethyl-2-(2-(tetrahydro-1H-furo[3,4-c]pyrrol-5(3H)-yl)-6-(trifluoromethyl)benzyl)-2,8-diazaspiro[4.5]decane-8-carboxylate] | > 75 |  | < 25 | > 1000 | < 25 | > 1000
7 | O=C(OC(C(F)(F)F)C(F)(F)F)N1CCC2(CCN(Cc3cccc(N4CCCC4)c3)C2)CC1 [Example 58, 1,1,1,3,3,3-Hexafluoropropan-2-yl 2-(3-(pyrrolidin-1-yl)benzyl)-2,8-diazaspiro[4.5]decane-8-carboxylate] | > 75 | 100 to 1000 | ≥ 75 | 100 to 1000 | < 25 | > 1000
8 | O=C(OC(C(F)(F)F)C(F)(F)F)N1CCC2(CCN(Cc3c(N4CCCC4)cccc3C(F)(F)F)C2)CC1 [Example 59, 1,1,1,3,3,3-Hexafluoropropan-2-yl 2-(2-(pyrrolidin-1-yl)-6-(trifluoromethyl)benzyl)-2,8-diazaspiro[4.5]decane-8-carboxylate] | > 75 | 100 to 1000 | < 25 | > 1000 | < 25 | > 1000
9 | O=C(OC(C(F)(F)F)C(F)(F)F)N1CCC2(CCCN2Cc2ccccc2)CC1 [Example 63, 1,1,1,3,3,3-Hexafluoropropan-2-yl 1-benzyl-1,8-diazaspiro[4.5]decane-8-carboxylate] | > 75 |  | < 25 | > 1000 | < 25 | > 1000
10 | O=C(OC(C(F)(F)F)C(F)(F)F)N1CCC2(CCCN2Cc2cccc(N3CCOCC3)c2)CC1 [Example 69, 1,1,1,3,3,3-Hexafluoropropan-2-yl 1-(3-morpholinobenzyl)-1,8-diazaspiro[4.5]decane-8-carboxylate] | > 75 |  | < 25 | > 1000 | < 25 | 
11 | CC(=O)N1CCCc2cccc(CN3CCC4(CCN(C(=O)OC(C(F)(F)F)C(F)(F)F)CC4)C3)c21 [Example 70, 1,1,1,3,3,3-Hexafluoropropan-2-yl 2-((1-acetyl-1,2,3,4-tetrahydroquinolin-8-yl)methyl)-2,8-diazaspiro[4.5]decane-8-carboxylate] | > 75 |  | ≥ 75 | 100 to 1000 | < 25 | 
12 | Cc1c(CN2CCCC23CCN(C(=O)OC(C(F)(F)F)C(F)(F)F)CC3)cccc1N1CCOCC1 [Example 83, 1,1,1,3,3,3-Hexafluoropropan-2-yl 1-(2-methyl-3-morpholinobenzyl)-1,8-diazaspiro[4.5]decane-8-carboxylate] | > 75 | < 100 | < 25 | > 1000 | < 25 | > 1000
13 | O=C(OC(C(F)(F)F)C(F)(F)F)N1CCC2(CCCN2Cc2ccc(C(F)(F)F)cc2N2CCS(=O)(=O)CC2)CC1 [Example 92, 1,1,1,3,3,3-Hexafluoropropan-2-yl 1-(2-(1,1-dioxidothiomorpholino)-4-(trifluoromethyl)benzyl)-1,8-diazaspiro[4.5]decane-8-carboxylate] | > 75 | < 100 | ≥ 75 | 100 to 1000 | < 25 | > 1000
14 | O=C(OC(C(F)(F)F)C(F)(F)F)N1CCC2(CCCN2Cc2ccc(C(F)(F)F)cc2N2CCCCCC2)CC1 [Example 95, 1,1,1,3,3,3-Hexafluoropropan-2-yl 1-(2-(azepan-1-yl)-4-(trifluoromethyl)benzyl)-1,8-diazaspiro[4.5]decane-8-carboxylate] | 25 to 75 | 100 to 1000 | < 25 | > 1000 | < 25 | > 1000
15 | CCN1CCN(c2cc(Cl)ccc2CN2CCCC23CCN(C(=O)OC(C(F)(F)F)C(F)(F)F)CC3)CC1 [Example 98, 1,1,1,3,3,3-Hexafluoropropan-2-yl 1-(4-chloro-2-(4-ethylpiperazin-1-yl)benzyl)-1,8-diazaspiro[4.5]decane-8-carboxylate] | > 75 | 100 to 1000 | < 25 | > 1000 | < 25 | > 1000
16 | O=C(OC(C(F)(F)F)C(F)(F)F)N1CCC2(CCCN2Cc2ccc(Cl)cc2N2CCS(=O)(=O)CC2)CC1 [Example 103, 1,1,1,3,3,3-Hexafluoropropan-2-yl 1-(4-chloro-2-(1,1-dioxidothiomorpholino)benzyl)-1,8-diazaspiro[4.5]decane-8-carboxylate] | > 75 | 100 to 1000 | ≥ 75 | 100 to 1000 | < 25 | > 1000
17 | O=C(OC(C(F)(F)F)C(F)(F)F)N1CCC2(CCCN2Cc2ccc(Cl)cc2N2CCCCCC2)CC1 [Example 106, 1,1,1,3,3,3-Hexafluoropropan-2-yl 1-(2-(azepan-1-yl)-4-chlorobenzyl)-1,8-diazaspiro[4.5]decane-8-carboxylate] | > 75 | 100 to 1000 | < 25 | > 1000 | < 25 | > 1000
18 | O=C(OC(C(F)(F)F)C(F)(F)F)N1CCC2(CCCN2Cc2cccc(N3C4CCC3COC4)c2Cl)CC1 [Example 109, 1,1,1,3,3,3-Hexafluoropropan-2-yl 1-(3-(3-oxa-8-azabicyclo[3.2.1]octan-8-yl)-2-chlorobenzyl)-1,8-diazaspiro[4.5]decane-8-carboxylate] | > 75 | < 100 | < 25 | > 1000 | < 25 | > 1000
19 | O=C(OC(C(F)(F)F)C(F)(F)F)N1CCC2(CCCN2Cc2cccc(N3CCC(F)CC3)c2Cl)CC1 [Example 110, 1,1,1,3,3,3-Hexafluoropropan-2-yl 1-(2-chloro-3-(4-fluoropiperidin-1-yl)benzyl)-1,8-diazaspiro[4.5]decane-8-carboxylate] | > 75 | < 100 | < 25 | > 1000 | < 25 | > 1000
